Reference: patent publication US8901317B2, “Tryptamine derivatives, their preparation and their use in gastropathy” (Council of Scientific & Industrial Research, priority 2010, dated 2014)

What was measured:
[1] = DPPH free radical scavenging assay
Procedure: The antioxidant property of different tryptamine derivatives were assessed and compared with the known antioxidants for potency. A range of different synthesized compounds and known anti oxidants, quercetin, ascorbic acid and gallic acid were analyzed by the FRAP assay. The FRAP assay is based on the measurement of the ability of the substance to reduce Fe^3+ to Fe^2+, greater the reducing ability greater the anti oxidant property. Antioxidants reduce Fe^3+-TPTZ in to blue colored Fe^2+-TPTZ complex, which results in an increase in the absorbance at 595 nm giving a FRAP value. […] Absorbance changes at different time intervals (FIG. 6) as well as at different concentrations (FIG. 7) at time 6 min in the presence of different compounds at 595 nm were measured. FRAP values at 6 min and 65 min were calculated from different tryptamine derivatives and some known antioxidant (Table 1). […] DPPH assay based on the DPPH free radicals scavenging power of the antioxidant molecules. Higher the scavenging power higher will be the antioxidant property. […] This assay was performed in presence of some known antioxidants such as ascorbic acid, quercetin and gallic acid.
2,2-Diphenyl-1-Picrylhydrazyl (DPPH) is a stable free radical that can accept hydrogen radical or an electron and become a stable diamagnetic molecule. The antioxidants can scavenge the DPPH by donating hydrogen as visualized by discoloration of the DPPH radical from purple to yellow (Pal, C; et al. Free Radic Biol Med, 49(2), 258-267; 2010, Ben Farhat, M.; et al. J. Agric. Food Chem. 57:10349-10356; 2009, Han, J; et al. Wei Sheng Yan Jiu 38:596-598; 2009). The assay system contained 1 mL of compounds under investigation dissolved (in methanol, some compound dissolved in water) at different concentrations in the range 10-100 μM solution and 4 ml of DPPH (0.15 mM) in methanol (80% in water v/v) and mixed well. It was allowed to stand for 30 min at 27° C. away from light. Ascorbic acid at the same concentration was taken as positive control. The absorbance of the solution was measured spectrophotometrically at 517 nm and from the decrease of absorption; the antioxidant activity of different tryptamine derivatives were determined.

[2] = test system: Ethanol-induced gastric mucosal injury; assay: Ethanol-induced gastric mucosal injury; type: in vivo, Sprague-Dwaley rats; conditions: 1 ml of 50% ethanol oral; rats
[3] = test system: NSAIDs-induced mitochondrial oxidative stress; assay: Mitochondrial oxidative stress in gastric mucosa (protein carbonyl, lipid peroxidation, total thiol); type: in vivo, rats; conditions: NSAIDs (indomethcin, diclofenac)-induced; pretreatment
Procedure: Commercially available kit (Biochain) was used for the isolation of mitochondria from gastric mucosal cells. In brief, scrapped gastric mucosa was finely minced on ice in a petridish containing mitochondria extraction buffer. Ultra-Turrax T-25 homogenizer was used to homogenize the cells. To remove nuclei and unbroken cells the homogenate was first centrifuged at 800×g for 10 min and then finally subjected to 12000×g for 15 min to get the mitochondrial fraction.
Mitochondrial oxidative stress was performed earlier through measurement protein carbonyl formation, lipid peroxidation and measurement of total thiol content (Pal, C; et al. Free Radic Biol Med, 49(2), 258-267; 2010, Maity, P.; et al. J. Biol. Chem. 284:3058-3068; 2009, Maity, P.; et al. J. Biol. Chem. 283:14391-14401; 2008, Maity, P.; et al. J. Pineal Res. 46:314-323; 2009).
Mitochondrial oxidative stress was studied earlier through the measurement of mitochondrial total thiol depletion, lipid peroxidation and protein carbonyl formation. In brief, thiol content was measured by its reaction with 5-5′-dithionitrobenzoic acid (DTNB) to yield the yellow chromophore of TNB (thionitrobenzoic acid), which was measured at 412 nm Mitochondrial lipid peroxidation was assayed by adding 1 ml of the mitochondrial fraction in 0.9% normal saline to 2 ml of TBA-TCA mixture (0.375% w/v and 15% w/v, respectively) in 0.25 N HCl and was mixed and boiled for 15 min which was then cooled and after centrifugation, the absorbance of the supernatant was read at 535 nm. Tetraethoxypropane was used as standard. Protein carbonyl was measured by following the standard colorimetric method that measures the binding of dinitrophenylhydrazine (DNP) to the carbonyl group and was quantified by taking the absorbance at 362 nm.

gastric mucosal cells = assay: TUNEL assay of gastric mucosa in vivo; set-up: species or system rats
[4] = test system: primary cultured gastric epithelial cells; assay: TUNEL assay in cultured gastric mucosal cells; type: cell-based, rat; conditions: in vitro cultured gastric mucosa
Procedure: Gastric mucosal cells were isolated and cultured as described earlier (Pal, C; et al. Free Radic Biol Med, 49(2), 258-267; 2010) with slight modification. Mucosa from rat stomach was scraped into HBSS (pH 7.4) containing 100 U/ml penicillin and 100-μg/ml streptomycin. The mucosa was then minced and suspended in HBSS (pH 7.4), containing 0.05% hyaluronidase and 0.1% collagenase type I. The suspension was incubated for 30 min at 37° C. in 5% CO2 environment with shaking and then filtered through a sterile nylon mess. The filtrate was centrifuged at 600×g for 5 min, the cell pellet was washed with HBSS (pH 7.4) and further centrifuged. The pellet was incubated in 5 ml of Hans F-12 media in T25 flask supplemented with 10% fetal bovine serum (FBS) and 100 U/ml penicillin, 100-μg/ml streptomycin and gentamycin. Cells were cultured at 37° C. with 5% CO2 and grown to ˜90% confluence before treatment.

[5] = test system: gastric mucosal primary cultured cells; assay: Mitochondrial dehydrogenase activity (MTT reduction assay); type: cell-based, rat
Procedure: Mitochondrial metabolic function was studied by observing the ability of mitochondrial dehydrogenases to reduce MTT ([3-(4,5-dimethylthiazol-2-yl)-2,5-diphenyl tetrazolium bromide]) into formazan dye (Pal, C; et al. Free Radic Biol Med, 49(2), 258-267; 2010). Equal number of gastric mucosal primary cultured cells were taken (10^6) in each well of a 12 well plate and were divided into three groups control, indomethacin treated (5 mM) and SEGA (50 μM) plus indomethacin (5 mM)-treated. After incubating for 16 hrs, cells were dissociated and centrifuged at 500×g for 5 min and the supernatant was then discarded. Cell pellet was reconstituted in fresh cell culture media. Equal number of cells (10^5 cells) in a final volume of 100 μl cell culture media from each group was then taken in 96 well plates in triplicates. MTT (0.1% final concentration) solution was added to each well of both control and experimental groups, mixed well and incubated for 3 hrs at 37° C. in a CO2 incubator. After the incubation, the culture medium was aspirated carefully and the insoluble formazan crystals at the bottom of the well were solubilized with 100 μl of MTT solubilization solution containing 10% Triton X-100 plus 0.1 N HCl in anhydrous isopropanol. The MTT reduction (absorbance of formazan dye) was measured at 570 nm.

O=C(NCCc1c[nH]c2ccc(O)cc12)c1cc(O)c(O)c(O)c1 [Compound 3a, 3,4,5-trihydroxy-N-(2-(5-hydroxy-1H-indol-3-yl)ethyl)benzamide]
DPPH scavenging power in words ([1]; among all the derivatives): higher scavenging power
Absorbance change (ΔA) at 30 min ([1]; compounds 100 μM, 517 nm (Table 2)): 0.45 ± 0.08
Absorbance change (ΔA) at 30 min ([1]; concentration 10 μM (Table 3)): 0.27 ± 0.03
Absorbance change (ΔA) at 30 min ([1]; concentration 30 μM (Table 3)): 0.34 ± 0.05
Absorbance change (ΔA) at 30 min ([1]; concentration 50 μM (Table 3)): 0.37 ± 0.07
Absorbance change (ΔA) at 30 min ([1]; concentration 80 μM (Table 3)): 0.42 ± 0.07
Absorbance change (ΔA) at 30 min ([1]; concentration 100 μM (Table 3)): 0.45 ± 0.08
antioxidant power compared with ascorbic acid, quercetin and gallic acid ([1]; data not shown): almost equal antioxidant power
gastroprotective effect in ethanol induced gastropathy [2]: protects the gastric mucosa
depletion of mitochondrial thiol [3]: protects
oxidation of mitochondrial protein (protein carbonyl formation) [3]: protects
peroxidation of mitochondrial lipid [3]: protects
indomethacin-induced apoptosis (TUNEL) in vivo (gastric mucosal cells): prevents the indomethcin-induced apoptosis
indomethacin-induced apoptosis (TUNEL) in vitro [4]: prevents the indomethcin-induced apoptosis
toxicity as established by MTT reduction assay [5]: non toxic molecule
mitochondrial dehydrogenase activity (MTT reduction) ([5]; SEGA 50 μM plus indomethacin 5 mM, 16 hrs): restores all the NSAIDs-induced mitochondrial dysfuctions
